The record followed here is PubChem BioAssay AID1259321 (Sanford-Burnham Center for Chemical Genomics, 2017).

Calls of active or inactive are those of the source.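 The calls were made as follows: active = half-maximal concentration for changing protein binding to DNA, from the fitted dose curve, below 10 micromolar; inactive = the rest.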 Some results are limits rather than exact numbers.

The assay addresses Nuclear receptor subfamily 1 group D member 1 (Homo sapiens) (UniProt P20393). Put plainly: modulators of Rev-erb alpha DNA binding, dose response, biochemical, FITC-DNA, fluorescence polarization (AID 1259321). A general note: In fluorescence polarisation assays a small probe gives low polarisation when free and higher when bound to something large.

Sequence of Nuclear receptor subfamily 1 group D member 1 (Homo sapiens) (P20393 whole entry, looked up): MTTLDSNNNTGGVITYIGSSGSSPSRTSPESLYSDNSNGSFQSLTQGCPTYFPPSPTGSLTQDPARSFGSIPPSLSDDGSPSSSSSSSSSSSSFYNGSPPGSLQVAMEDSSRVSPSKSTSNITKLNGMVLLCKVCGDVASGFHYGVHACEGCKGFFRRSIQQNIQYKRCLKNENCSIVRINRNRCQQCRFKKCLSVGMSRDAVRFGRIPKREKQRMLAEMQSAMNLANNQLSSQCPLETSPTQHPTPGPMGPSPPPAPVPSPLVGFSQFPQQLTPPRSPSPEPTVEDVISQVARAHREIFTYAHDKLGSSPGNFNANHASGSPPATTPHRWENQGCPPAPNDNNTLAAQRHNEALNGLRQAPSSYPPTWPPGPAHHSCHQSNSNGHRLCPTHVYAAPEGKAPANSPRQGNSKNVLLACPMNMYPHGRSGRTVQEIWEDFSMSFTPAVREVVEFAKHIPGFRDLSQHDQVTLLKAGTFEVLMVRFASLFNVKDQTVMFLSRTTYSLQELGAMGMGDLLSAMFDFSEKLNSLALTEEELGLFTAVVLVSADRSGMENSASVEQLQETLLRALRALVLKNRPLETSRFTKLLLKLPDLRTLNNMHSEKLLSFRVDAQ

As to `CCN(CC)C(=O)Cn1c(C)c(/C=C/c2cc[n+](C)cc2)c2ccccc21`, the IC50 is 4.55 µM.
Consider `CC(C)Cc1nc2sc3c(SCC(N)=O)ncnc3c2c2c1CCC2`, for which the IC50 is 3.65 µM.
As for `CN(C)c1ccc(/C=C2\NC(=S)N(Cc3ccccc3)C2=O)cc1`, the figure is > 40 µM (inactive); as for `CCC(C)(C)c1ccc(OCCCC[n+]2ccc(C)cc2)c(C(C)(C)CC)c1`, > 40 µM (inactive); as for `CC(C)c1ccc(-c2c(C#N)c(N)nc(SCC(=O)N3CCCCC3)c2C#N)cc1`, 3.15 µM.
As for `CC1(C)Cc2c(c(N3CCOCC3)nc3sc4c(NN)ncnc4c23)CS1`, the figure is > 40 µM (inactive); as for `O=C(NCCc1ccccc1)c1ccc2c(c1)S(=O)(=O)c1cc(Cl)ccc1C2=O`, 1.84 µM; as for `Cc1cc(C)c(NC(=O)CSc2nc(COc3ccccc3)nc3ccccc23)c(C)c1`, 3.42 µM.
The result for `CCOc1ccc(NC(=O)CSc2nc(C3CC3)nc3ccccc23)cc1` reads 5.32 µM; that for `COc1ccc(-c2cc(-c3cccnc3)c(C#N)c(N)n2)cc1`, 4.4 µM.
Regarding `COc1ccc(Sc2nc3ccccc3n3c(C(F)(F)F)nnc23)cc1`, the half-maximal inhibitory concentration (IC50) is 3.01 µM.
Consider `COc1cc(/C=C2\SC(=O)N(CCNC(=O)c3sc4cc(F)ccc4c3Cl)C2=O)cc(OC)c1OC`, for which the IC50 is 4.87 µM.
As for `COc1ccc(-c2ccc(-c3noc(-c4ccccc4F)n3)c(OC)n2)cc1`, the figure is 1.33 µM; as for `CCOC(=O)c1ccccc1NC(=O)c1cncc(Br)c1`, 7.27 µM; as for `O=C(NCc1cccc(F)c1)c1cccc2c1C(=O)c1ccc(N3CCOCC3)cc1S2(=O)=O`, 3.69 µM.
As for `COc1ccccc1NC(=O)c1sc2nc(Cc3ccccc3)cc(C(F)(F)F)c2c1N`, the entry is “inactive”.
As for `Cc1c(-c2ccc(F)cc2)nc(N)c(C#N)c1-c1cccs1`, the figure is 1.77 µM; as for `Cc1cccc(NC(=O)CSc2ncnc3c2oc2ccccc23)c1`, 0.615 µM; as for `CCOC(=O)c1c(C2CC2)csc1NC(=O)COC(=O)c1cnc(Cl)c(Cl)c1`, “inactive”.
`COc1cccc(NC(=O)CSc2ncnc3c2oc2ccccc23)c1`: the IC50 was > 40 µM (inactive).
In the case of `N#Cc1c(N)nc(N2CCCC2)c(C#N)c1-c1ccc(Cl)cc1`, the IC50 was 4.99 µM.
As for `CCOc1ccccc1NC(=O)c1cnc2n(c1=O)CCS2`, the IC50 is > 40 µM (inactive).
Take `CCc1cc2cc(C(=O)Nc3ccc(F)cc3)sc2s1`: the IC50 is 7.03 µM.
The result for `COc1cc(NC(=O)CCn2c(=S)[nH]c3ccccc3c2=O)cc(OC)c1OC` reads “inactive”; that for `CC1CC1C(=O)Nc1nc(-c2cccs2)c(-c2cccs2)s1` (stereo unspecified), 5.22 µM.
As for `COc1ccc2c(c1)oc(=O)c1c3ccccc3[nH]c21`, the IC50 was > 40 µM (inactive).
As for `Cc1nonc1NC(=O)CSc1nc2c(C)cccc2cc1C#N`, the figure is > 40 µM (inactive); as for `COc1ccc(-c2c(C#Cc3ccsc3)c3cc(-c4ccc5c(c4)OCCO5)ccc3n2C)cc1`, > 40 µM (inactive).
The result for `O=S(=O)(c1ccc2nc(N3CCN(c4ccccc4F)CC3)ccc2c1)N1CCCCC1` reads 0.838 µM.
As for `CC(=O)Nc1sc(C)c(C)c1C(=O)OCC(=O)N(Cc1ccccc1)C(C)C`, the entry is “inactive”; as for `Cc1cc2c(s1)c1cnn(Cc3c(Cl)ccc(C)c3F)c(=O)c1n2C`, “inactive”.
For `O=C1NC(=O)c2c(Br)c(Br)c(Br)c(Br)c21`, the IC50 was 1.48 µM.
As for `C=CCn1c(SCC(=O)Nc2cc(C)on2)nc2sc(C)c(C)c2c1=O`, the figure is 5.14 µM.
For the molecule `O=C(Nc1ccc2c(c1)C(=O)NC2=O)c1ccc2ncsc2c1`, the IC50 was 2.29 µM.
The result for `COc1ccc(C(=O)Nc2ccc(C(F)(F)F)n(C)c2=O)cc1` reads > 40 µM (inactive); that for `CCCCOc1ccc(C(=O)n2ccc3ccc(-c4ccc5ccn(Cc6ccccc6)c5c4)cc32)cc1`, > 40 µM (inactive).
Consider `Cc1cc(C)n2nc(-c3ccc(Cl)cc3)cc2n1`, for which the IC50 was 1.64 µM.
Turning to `CCCCc1nc2sc3c(SCCN(C)C)ncnc3c2c2c1CCC2`, the IC50 is 7.04 µM.
As to `Cc1cc(=O)oc2cc(OCC3CC(c4ccc(Br)cc4)=NO3)ccc12` (stereo unspecified), the IC50 is 1.04 µM.
Consider `COc1ccc(NC(=O)c2ccc(C(=O)c3cc(OC)ccc3OC)cc2)cc1`, for which the IC50 was 1.67 µM.
As for `CCc1ccc2n(-c3ccc(OC)cc3)c([S-])c(C(=O)Nc3cc(C)cc(C)c3)[n+]2c1`, the figure is 2.71 µM; as for `Cc1[nH]nc2nc(SCC(=O)NCCC3=CCCCC3)n(-c3ccc(Br)cc3)c(=N)c12`, > 40 µM (inactive).
As for `COc1cc2c3nnc(-c4ccc(F)cc4)c-3cn(Cc3ccccc3F)c2cc1OC`, the figure is 1.98 µM.
The result for `CCOC(=O)/C(C#N)=C/c1cc2ccccc2nc1N1CCCCC1` reads > 40 µM (inactive).
In the case of `C#CCn1c(=NC(=O)c2ccc(Br)s2)sc2cccc(OC)c21`, the IC50 is 2.4 µM.
In the case of `CCCNC(=O)Nc1ccc2c(c1)C(=O)N(C)[C@H]1CC[C@H](CC(=O)NCC3CCCCC3)O[C@@H]1CO2`, the IC50 is > 40 µM (inactive).
Regarding `Cc1nc(SCc2nc3c(F)cccc3[nH]2)c2oc3ccccc3c2n1`, the IC50 is > 40 µM (inactive).
As to `Cc1coc(NC(=O)CSc2nc(-c3ccc(Cl)cc3)cc(C(F)(F)F)c2C#N)n1`, the IC50 entry was “inactive”.
On to `Brc1ccc2ncc(Br)cc2c1`, for which the IC50 was 4.22 µM.
Consider `Cn1c(=O)c(Nc2ccc(O)cc2)c2c3c(cccc31)C(=O)c1ccccc1-2`, for which the IC50 is 6.77 µM.
With `CCOC(=O)Nc1ccc2c(COC(=O)CNS(=O)(=O)c3ccc(NC(C)=O)cc3)cc(=O)oc2c1`, the IC50 is 0.548 µM.
As to `Cc1cccc(N2CCN(c3ccc4cc(S(=O)(=O)N5CCCCC5)ccc4n3)CC2C)c1` (stereo unspecified), the IC50 is 4.89 µM.
As to `Cc1ccc(-c2nn3c(C)nnc3s2)cc1NC(=O)c1ccc(-c2ccc(Cl)cc2Cl)o1`, the IC50 is > 40 µM (inactive).
For the molecule `CCN(CC)c1ccc2cc(C(=O)NCc3ccc(F)cc3)c(=N)oc2c1`, the IC50 entry was “inactive”.
As for `COC(=O)c1ccc(Cn2ccc3ccc(-c4ccc5ccn(C(=O)C6CCCCC6)c5c4)cc32)cc1`, the figure is 6.33 µM; as for `Cc1sc2nc(SCC(=O)NCc3ccco3)n(CCc3ccccc3)c(=O)c2c1C`, > 40 µM (inactive).
As to `Cc1cccc2cc(C#N)c(NCCNC(=O)NC3CCCCC3)nc12`, the IC50 entry is “inactive”.
In the case of `COc1ccc2cc(C(=O)COC(=O)COc3ccc4c(C)cc(=O)oc4c3)ccc2c1`, the IC50 was 4.26 µM.
As for `N=C1C(c2nc3ccccc3s2)=C(O)CN1NC(=O)c1c[nH]c2ccccc12`, the figure is 4.45 µM; as for `COc1ccc2c(C)cc(SCC(=O)Nc3cccnc3Cl)nc2c1`, > 40 µM (inactive); as for `COc1cc(SC)ccc1C(=O)Nc1ccc(Cl)cn1`, 4.58 µM.
The result for `COc1ccc(-n2nc(C(=O)NCC(=O)NCc3ccc(F)cc3)c3ccccc3c2=O)cc1OC` reads “inactive”.
As for `Cc1ccccc1NC(=O)c1sc(NC(=O)COc2ccccc2)c(C#N)c1C`, the figure is > 40 µM (inactive).
Regarding `CCOC(=O)CC(=O)CSc1nc(-c2ccc3c(c2)OCO3)cc(C(F)(F)F)c1C#N`, the IC50 result is “inactive”.
As for `CCOc1ccc2nc(N=Nc3c(O)[nH]c(=S)[nH]c3=O)sc2c1`, the figure is > 40 µM (inactive); as for `O=C(CCCn1c(=S)[nH]c2cc3c(cc2c1=O)OCO3)NCc1cccc(Cl)c1`, > 40 µM (inactive); as for `N#Cc1cccc(Cn2ccc3ccc(-c4ccc5ccn(Cc6cccc(C#N)c6)c5c4)cc32)c1`, 0.544 µM.
Consider `COC(=O)c1sc2nc3c(cc2c1N)C(=O)CC(C)(C)C3`, for which the IC50 result was “inactive”.
As for `CCOc1ccc(CNC(=O)C2CCN(c3nnc(C)c4c(C)n(-c5ccc(C)cc5)nc34)CC2)cc1`, the entry is “inactive”; as for `COC(=O)c1ccc(Cn2ccc3ccc(-c4ccc5ccn(C(=O)c6cccc(OC)c6)c5c4)cc32)cc1`, “inactive”; as for `O=C(Nc1ccc2oc(-c3cccc(F)c3)nc2c1)c1ccccc1F`, 2.87 µM.
`COc1ccccc1C(=O)Nc1ccc2oc(-c3ccc(F)cc3)nc2c1`: the IC50 was 0.436 µM.
Turning to `O=C(NCc1ccccn1)c1ccc(Cn2c(=S)[nH]c3ccc(Br)cc3c2=O)cc1`, the IC50 was 2.63 µM.
In the case of `CC(NC(=O)c1ccc(-c2cc(C(F)(F)F)ccc2Cl)o1)c1ccccc1` (stereo unspecified), the IC50 was > 40 µM (inactive).
The result for `C=CCn1c(=NC(=O)c2ccco2)sc2cc(C(=O)OC)ccc21` reads “inactive”.
Consider `Clc1ccccc1-c1nn2c(-c3cc(-c4ccccc4)n[nH]3)nnc2s1`, for which the IC50 was > 40 µM (inactive).
On to `CN1C(=O)C(=Cc2ccc(N3CCOCC3)o2)C(=O)N(C)C1=O`, for which the IC50 is 1.36 µM.
On to `C/C(=N\N(Cc1ccccc1)c1ccccc1)c1ccncc1`, for which the IC50 was 6.97 µM.
The result for `Cc1ccc2nsnc2c1NC(=O)c1sc2ccccc2c1Cl` reads 1.49 µM; that for `O=C1c2cccc3c(O)ccc(c23)C(=O)N1Cc1ccccc1`, “inactive”.
As for `COc1ccc(C(=O)c2c[nH]c(C(=O)NCc3cccs3)c2)cc1`, the figure is > 40 µM (inactive); as for `Fc1ccc2nc(Nc3nc4cc5c(cc4s3)OCCO5)sc2c1`, 6.87 µM.
As for `Cc1cc(C)c2nc(SCC(=O)Nc3cc(C)on3)c(C#N)cc2c1`, the figure is 4.17 µM; as for `COC(=O)c1cccc(Cn2ccc3ccc(-c4ccc5ccn(C(=O)C6CCCCC6)c5c4)cc32)c1`, 7.14 µM.
Regarding `CC1CCN(S(=O)(=O)c2ccc3nc(N4CCN(c5ccccc5)CC4)ccc3c2)CC1`, the IC50 is 8.29 µM.
Take `Cc1ccc(S(=O)(=O)c2nc(Nc3ccccc3C#N)sc2Cl)cc1`: the IC50 result is “inactive”.
As to `O=C(c1cccs1)N1C(=O)c2cccc3cccc1c23`, the IC50 was 4.29 µM.
Take `CCCCn1c(SC(C)C(=O)NCC2CCCO2)nc2cc(C(=O)OC)ccc2c1=O` (stereo unspecified): the IC50 was > 40 µM (inactive).
The result for `COC(=O)c1cccc(Cn2ccc3ccc(-c4ccc5ccn(C(=O)c6ccccc6C)c5c4)cc32)c1` reads 2.94 µM; that for `CN(C)/C=C1\C=C2C(=O)c3ccccc3N2C1=O`, 0.714 µM; that for `Cc1cc(-c2ccccc2)nc2oc3c(c12)NC(=O)CN(c1ccccc1)C3=O`, 0.378 µM.

What is called IC50 is the concentration needed to halve the response being measured.
